The results in this text go back to US20250084095A1, “Aminopyrimidine Derivatives as Cyclin-Dependent Kinase Inhibitors” (Accutar Biotechnology Inc., priority 2023, published 2025).

Structures are written as SMILES. Where only a bound is given, the exact number is not on record here.

Assay [1] deals with Phospho-Rb (Ser807/811) in MCF7 cells. Description: Phospho-Rb expression inhibition in MCF7 cells quantified by in cell Western. It is filed as cell-based, human. The settings on record: Homo sapiens, MCF7, 24 h, 24 hours, in cell Western, read-out: MCF7 pRb IC50. Here is the method:
MCF7 cells were obtained from American Type Culture Collection (ATCC, HTB-22). MCF7 cells were plated in 96-well plates (VWR #10062-900, or Coming #3904) in 90 μL culture medium at a density of 20,000 cells/well in the DMEM growth medium containing 10%/FBS and 1% Penicillin Streptomycin, and then incubated at 37° C. overnight. The following day, the test compound was administered to the cells by using 1000× compound stock solution prepared in DMSO at various concentrations. 1000× compound stock solution was first diluted in culturing medium to 10×, then 10 μL compound medium was added to each well in the cell plates. After administration of the compound, the cells were then incubated at 37° C. for 24 h. Upon completion, the cells were washed with PBS briefly. 150 μL/well of 4% formaldehyde was added and the plates were incubated at room temperature for 20 min. The cells were washed with PBS briefly, and permeabilized with 150 µL/well of ice cold 100% methanol for 10 min. The cells were washed with PBS briefly and blocked with 100 µL/well LI-COR blocking buffer for 1 h at room temperature with gentle shaking. The cells were incubated overnight at 4° C. with 50 μL primary antibody rabbit anti-Phospho-Rb (Ser807/811) (1: 500, Cell Signaling, #8516) and anti-Rb (1:200, Santa Cruz, sc-73598) diluted in Intercept Blocking Buffer (LI-COR, #927-60001) containing 0.1% Tween 20. The next day, the cells were washed with 200 μL PBS containing 0.1% Tween 20, 5×5 mins at room temperature with gentle shaking, and incubated with 50 μL secondary antibody, IRDye® 800CW Goat anti-Rabbit IgG (1:1000, LI-COR, #926-32211) and FRDye® 680RD Goat anti-Mouse IgG (1:1000, LI-COR, #926-68070), in LI-COR […] blocking buffer with 0.2% Tween 20 for 1 h at room temperature with gentle shaking. The cells were washed with 200 μL PBS containing 0.1% Tween 20, 5×5 min at room temperature with gentle shaking. The cells were washed with PBS for 5 mins. 100 μL fresh PBS was added to each well and the plates were imaged on a LI-COR Odyssey CLX plate reader.
MCF7 cells were obtained from American Type Culture Collection (ATCC, HTB-22). SW1573-CDK6 KO and SW1573-CDK4 KO cells were generated by the CRISPR-Cas9 technology. All cells were plated in 96-well plates (VWR #10062-900, or Corning #3904) in 90 uL culture medium at a density of 20,000 cells/well in the respective growth medium containing 10% FBS and 1% Penicillin Streptomycin, and then incubated at 37° C. overnight. The following day, the test compound was administered to the cells by using 1000× compound stock solution prepared in DMSO at various concentrations. 1000× compound stock solution was first diluted in culturing medium to 10×, then 10 uL compound medium was added to each well in the cell plates. After administration of the compound, the cells were then incubated at 37° C. for 24 hours. Upon completion, the cells were washed with PBS briefly. 150 uL/well of 4% formaldehyde was added and the plates were incubated at room temperature for 20 mins. The cells were washed with PBS briefly, and permeabilized with 150 uL/well of ice cold 100% methanol for 10 mins. The cells were washed with PBS briefly and blocked with 100 uL/well LI-COR blocking buffer for 1 hr at room temperature with gentle shaking. The cells were incubated overnight at 4° C. with 50 uL primary antibody rabbit anti-Phospho-Rb (Ser807/811) (1: 500, Cell Signaling, #8516) and anti-Rb (1:200, Santa Cruz, sc-73598) diluted in Intercept Blocking Buffer (LI-COR, #927-60001) containing 0.1% Tween 20. The next day, the cells were washed with 200 uL PBS containing 0.1% Tween 20, 5×5 mins at room temperature with gentle shaking, and incubated with 50 uL secondary antibody, IRDye® 800CW Goat anti-Rabbit IgG (1:1000, LI-COR, #926-32211) and IRDye®680RD Goat anti-Mouse IgG (1:1000, LI-COR, #926-68070), in LI-COR blocking buffer with 0.2% Tween 20 for 1 hr at room temperature with gentle shaking. […]

The next assay relates to 22RV1 cells. Description: Cell growth inhibition of 22RV1 cells (CellTiter-Glo). The format is cell-based. The settings on record: Homo sapiens, 22Rv1, 120 h, 5 days, CellTiter-Glo, read-out: 22RV1 Cell Growh GI50. On the procedure: For cell growth assay, 22RV1 (ATCC, CRL-2505) cells were seeded in 96-well plates at 1000 cells/well in 90 μl of RPMI1640 growth medium containing 20% FBS and 1% Penicillin Streptomycin, and then incubated at 37° C. overnight. The following day, the test compound was administered to the cells by using 1000× compound stock solution prepared in DMSO at various concentrations. 1000× compound stock solution was first diluted in culturing medium to 10×, then 10 uL compound medium was added to each well in the cell plates. After administration of the compound, the cells were then incubated at 37° C. for 5 days. Upon completion, the plates were equilibrated at room temperature for approximately 10 min. 100 μl of CellTiter-Glo® Reagent (Promega) was added to each well. The plates were then incubated at room temperature for 10 min and luminescence was recorded by EnSpire plate reader (PerkinElmer).
22RV1 cells were obtained from American Type Culture Collection (ATCC, CRL-2505). 22RV1 cells were seeded in 96-well plates at 1000 cells/well in 90 μL of RPMI1640 growth medium containing 10% FBS and 1% Penicillin Streptomycin, and then incubated at 37° C. overnight. The following day, the test compound was administered to the cells by using 1000× compound stock solution prepared in DMSO at various concentrations. […], then 10 uL compound medium was added to each well in the cell plates. After administration of the compound, the cells were then incubated at […] for 5 days. Upon completion, the plates were equilibrated at room temperature for approximately 10 minutes. 100 μL of CellTiter-Glo® Reagent (Promega) was added to each well. The plates were then incubated at room temperature for 10 minutes and luminescence was recorded by EnSpire plate reader (PerkinElmer).

In the case of `CC1OCC(C)n2c1nc1c(F)cc(-c3nc(N[C@@H]4C[C@H]5CO[C@H](O5)[C@H]4O)ncc3Cl)cc12` (stereo partly drawn) [Compound 49, (1S,3R,4S,5R)-3-((5-chloro-4-(9-fluoro-1,4-dimethyl-3,4-dihydro-1H-benzo[4,5]imidazo[2,1-c][1,4]oxazin-7-yl)pyrimidin-2-yl)amino)-6,8-dioxabicyclo[3.2.1]octan-4-ol], in assay [1], the half-inhibitory concentration (IC50) was in the range of 40 to 150 nM. Besides, the 50% growth inhibitory concentration (GI50) with 22RV1 cells fell in the range of 120 to 450 nM.
The corresponding values for `CC(C)n1c(C(C)(C)O)nc2c(F)cc(-c3nc(N[C@@H]4C[C@H]5OC[C@H](O5)[C@H]4O)ncc3Cl)cc21` [Compound 72, (1S,2S,3R,5S)-3-((5-chloro-4-(4-fluoro-2-(2-hydroxypropan-2-yl)-1-isopropyl-1H-benzo[d]imidazol-6-yl)pyrimidin-2-yl)amino)-6,8-dioxabicyclo[3.2.1]octan-2-ol] are 40 to 150 nM and 120 to 450 nM.
For `CC(C)n1c(C(C)(C)O)nc2c(F)cc(-c3nc(N[C@@H]4C[C@@H]5CO[C@@H](O5)[C@H]4O)ncc3Cl)cc21` [Compound 137, (1R,3R,4S,5S)-3-((5-chloro-4-(4-fluoro-2-(2-hydroxypropan-2-yl)-1-isopropyl-1H-benzo[d]imidazol-6-yl)pyrimidin-2-yl)amino)-6,8-dioxabicyclo[3.2.1]octan-4-ol], the IC50 in assay [1] fell in the range of 150 to 1000 nM. In addition, the 50% growth inhibitory concentration (GI50) in the assay with 22RV1 cells is over 3000 nM.
In the case of `CC(C)n1c(N2CC[C@@H](F)C2)nc2c(F)cc(-c3nc(N[C@@H]4C[C@H]5CO[C@H](O5)[C@H]4O)ncc3Cl)cc21` [Compound 151, (1S,3R,4S,5R)-3-((5-chloro-4-(4-fluoro-2-((R)-3-fluoropyrrolidin-1-yl)-1-isopropyl-1H-benzo[d]imidazol-6-yl)pyrimidin-2-yl)amino)-6,8-dioxabicyclo[3.2.1]octan-4-ol], in assay [1], the IC50 is 40 to 150 nM. In the assay with 22RV1 cells, the GI50 was in the range of 120 to 450 nM.
Take `CC(C)n1c(-c2ccccc2)nc2c(F)cc(-c3nc(N[C@@H]4C[C@H]5CO[C@H](O5)[C@H]4O)ncc3Cl)cc21` [Compound 163, (1S,3R,4S,5R)-3-((5-chloro-4-(4-fluoro-1-isopropyl-2-phenyl-1H-benzo[d]imidazol-6-yl)pyrimidin-2-yl)amino)-6,8-dioxabicyclo[3.2.1]octan-4-ol]: in assay [1], the half-maximal inhibitory concentration (IC50) lay in the range of 40 to 150 nM. The concentration for 50% growth inhibition (GI50) in the assay on 22RV1 cells was in the range of 120 to 450 nM.
Consider `CC(C)(O)c1nc2c(F)cc(-c3nc(N[C@@H]4C[C@H]5CO[C@H](O5)[C@H]4O)ncc3Cl)cc2n1C1(CF)CC1` [Compound 167, (1S,3R,4S,5R)-3-((5-chloro-4-(4-fluoro-1-(1-(fluoromethyl)cyclopropyl)-2-(2-hydroxypropan-2-yl)-1H-benzo[d]imidazol-6-yl)pyrimidin-2-yl)amino)-6,8-dioxabicyclo[3.2.1]octan-4-ol], for which the 50% inhibitory concentration (IC50) in assay [1] was in the range of 40 to 150 nM. In the assay with 22RV1 cells, the concentration for 50% growth inhibition (GI50) is at most 120 nM.
For the molecule `CC(C)n1c(C2(C(F)F)CC2)nc2c(F)cc(-c3nc(N[C@@H]4C[C@H]5CO[C@H](O5)[C@H]4O)ncc3Cl)cc21` [Compound 168, (1S,3R,4S,5R)-3-((5-chloro-4-(2-(1-(difluoromethyl)cyclopropyl)-4-fluoro-1-isopropyl-1H-benzo[d]imidazol-6-yl)pyrimidin-2-yl)amino)-6,8-dioxabicyclo[3.2.1]octan-4-ol], the IC50 in assay [1] was 40 to 150 nM. Also, in the assay on 22RV1 cells, the 50% growth inhibitory concentration (GI50) is at most 120 nM.
As for `CC(C)n1c(C(C)(C)C(F)F)nc2c(F)cc(-c3nc(N[C@@H]4C[C@H]5CO[C@H](O5)[C@H]4O)ncc3Cl)cc21` [Compound 169, (1S,3R,4S,5R)-3-((5-chloro-4-(2-(1,1-difluoro-2-methylpropan-2-yl)-4-fluoro-1-isopropyl-1H-benzo[d]imidazol-6-yl)pyrimidin-2-yl)amino)-6,8-dioxabicyclo[3.2.1]octan-4-ol], in assay [1], the IC50 lay in the range of 40 to 150 nM. The GI50 with 22RV1 cells is at most 120 nM.
Take `CC(C)n1c(C2(F)COC2)nc2c(F)cc(-c3nc(N[C@@H]4C[C@H]5CO[C@H](O5)[C@H]4O)ncc3Cl)cc21` [Compound 170, (1S,3R,4S,5R)-3-((5-chloro-4-(4-fluoro-2-(3-fluorooxetan-3-yl)-1-isopropyl-1H-benzo[d]imidazol-6-yl)pyrimidin-2-yl)amino)-6,8-dioxabicyclo[3.2.1]octan-4-ol]: the half-maximal inhibitory concentration (IC50) in assay [1] was in the range of 40 to 150 nM. Besides, the GI50 in the assay with 22RV1 cells lay within 450 to 3000 nM.
Regarding `CC(C)n1c(C2(O)COC2)nc2c(F)cc(-c3nc(N[C@@H]4C[C@H]5CO[C@H](O5)[C@H]4O)ncc3Cl)cc21` [Compound 172, (1S,3R,4S,5R)-3-((5-chloro-4-(4-fluoro-2-(3-hydroxyoxetan-3-yl)-1-isopropyl-1H-benzo[d]imidazol-6-yl)pyrimidin-2-yl)amino)-6,8-dioxabicyclo[3.2.1]octan-4-ol], the half-inhibitory concentration (IC50) in assay [1] was 40 to 150 nM. The concentration for 50% growth inhibition (GI50) with 22RV1 cells is 120 to 450 nM.
With `CC(C)N1CCOc2c(F)cc(-c3nc(N[C@@H]4C[C@H]5CO[C@H](O5)[C@H]4O)ncc3Cl)cc21` [Compound 173, (1S,3R,4S,5R)-3-((5-chloro-4-(8-fluoro-4-isopropyl-3,4-dihydro-2H-benzo[b][1,4]oxazin-6-yl)pyrimidin-2-yl)amino)-6,8-dioxabicyclo[3.2.1]octan-4-ol], in assay [1], the 50% inhibitory concentration (IC50) was in the range of 40 to 150 nM. The GI50 in the assay with 22RV1 cells lay in the range of 120 to 450 nM.
As for `C[C@H]1COc2c(-c3nc(N[C@@H]4C[C@H]5CO[C@H](O5)[C@H]4O)ncc3Cl)cc(F)c3c2N1CCO3` [Compound 174, (1S,3R,4S,5R)-3-((5-chloro-4-((S)-9-fluoro-4-methyl-2,3,4,5-tetrahydro-1,6-dioxa-3a-azaphenalen-7-yl)pyrimidin-2-yl)amino)-6,8-dioxabicyclo[3.2.1]octan-4-ol], the IC50 in assay [1] lay within 40 to 150 nM. Also, in the assay with 22RV1 cells, the GI50 was 120 to 450 nM.
